One test concerns the target HyNaC2/4/6 (Hydra vulgaris (Hydra magnipapillata), UniProt A0A0A0MP54+A8DZR6+A8DZR8). Description: Inhibition of HyNaC2/4/6 currents in Xenopus oocytes (TEVC). The class given is cell-based. To be noted: HyNaC2/4/6. The procedure:
(§1) One of the hallmarks of DEG/ENaCs is the block by the diuretic amiloride.
(§2) Figure 10 Diminazene is a potent inhibitor of HyNaCs. A) Current trace illustrating the concentration-dependent inhibition of HyNaC2/9/7 by diminazene. Block by 100 μM amiloride was used to compare the affinity for diminazene and amiloride. […] Dashed lines represent the zero current level. B) Concentration-response curves showing the concentration-dependent inhibition of HyNaCs by diminazene. HyNaCs, Hydra Na^+ channels.
(§3) To study the biophysical properties of the new HyNaCs, cRNA of HyNaCs was synthesized in vitro (mMessage mMachine kit, Ambion, Austin, Texas, USA) and injected into Xenopus laevis oocytes of stage V and VI. […] Whole cell currents were recorded from defolliculated oocytes by two-electrode voltage-clamp (TEVC) using the amplifier TurboTec 03X (npi electronic GmbH, Tamm, Germany). […]
(§4) EC50 values for Hydra-RFamides I and II as well as IC50 values for diminazene were determined by fits to the Hill equation using IGOR Pro (version 6.06, WaveMetrics, Inc.). Reversal potentials were defined as the first recorded data point, where currents reversed signs from negative to positive. […]

In the next test the target is HyNaC2/3/6 (Hydra vulgaris (Hydra magnipapillata), UniProt A0A0A0MP54+A8DZR6+A8DZR7). Description: Inhibition of HyNaC2/3/6 currents in Xenopus oocytes (TEVC). The class given is cell-based. The conditions noted are these: HyNaC2/3/6. The procedure:
as §1, §2, §3, §4

For the next test, the target named is HyNaC2/9/7 (Hydra vulgaris (Hydra magnipapillata), UniProt A0A0A0MP48+A0A0A0MP73+A8DZR6). Description: Inhibition of HyNaC2/9/7 currents in Xenopus oocytes (TEVC). To be noted: HyNaC2/9/7. The class given is cell-based. The procedure:
as §1, §2, §3, §4

For another test, the target named is HyNaC2/3/7 (Hydra vulgaris (Hydra magnipapillata), UniProt A0A0A0MP73+A8DZR6+A8DZR7). Description: Inhibition of HyNaC2/3/7 currents in Xenopus oocytes (TEVC). The format is cell-based. To be noted: HyNaC2/3/7. How it is done: as §1, §2, §3, §4
Another test has as its target HyNaC2/10/7 (Hydra vulgaris (Hydra magnipapillata), UniProt A0A0A0MP61+A0A0A0MP73+A8DZR6). As to the kind of experiment: Inhibition of HyNaC2/10/7 currents in Xenopus oocytes (TEVC). The format is cell-based. The conditions noted are these: HyNaC2/10/7. The procedure: as §1, §2, §3, §4
The next test has as its system Hydra magnipapillata. Description: Feeding reaction (tentacle curling induced by glutathione) of living Hydra. The class given is in vivo. To be noted: 10 μM GSH. The procedure: To find further evidence that amiloride inhibited the feeding reaction via inhibition of HyNaCs, we repeated these experiments with diminazene. Addition of glutathione (GSH; 10 μM final concentration) induced tentacle contractions and animals moved the tentacles to their mouth. After about two minutes, 100% of animals had their tentacles completely curled. […] Although the potency of diminazene in vivo was low, it should be taken into account that septate junctions provide a significant paracellular permeability barrier to the mesogleal space of Hydra. Moreover, it appears that diminazene requires active transport mechanisms for cellular uptake, probably strongly limiting its transcellular transport; amiloride in contrast is, in part, uncharged at neutral pH and has a significant membrane permeability.
Figure 11 Diminazene inhibits the feeding reaction of Hydra magnipapillata . Adult animals were held in plain medium or in medium containing 100, 200 or 300 μM diminazene (Dimi). The feeding response was induced by application of 10 μM glutathione (GSH). The number of animals showing complete tentacle curling was recorded every 30 seconds. *, P <0.05; **, P <0.01; ***, P <0.001.

A further test concerns the target HyNaC2/11/5 (Hydra vulgaris (Hydra magnipapillata), UniProt A0A0A0MP55+A8DZR6+D3UD58). Description: Inhibition of HyNaC2/11/5 currents in Xenopus oocytes (TEVC). The class given is cell-based. To be noted: HyNaC2/11/5. How it is done:
as §1, §2, §3, §4

The next test addresses HyNaC2/3/5 (Hydra vulgaris (Hydra magnipapillata), UniProt A8DZR6+A8DZR7+D3UD58). Description: Inhibition of HyNaC2/3/5 currents in Xenopus oocytes (TEVC). The class given is cell-based. To be noted: HyNaC2/3/5. How it is done:
as §1, §2, §3, §4

Another test concerns HyNaCs. Description: Block of HyNaC currents (HyNaCs in general) in Xenopus oocytes. The format is cell-based, Hydra magnipapillata. The conditions noted are these: most HyNaCs. How it is done:
as §1, §2
To study the biophysical properties of the new HyNaCs, cRNA of HyNaCs was synthesized in vitro (mMessage mMachine kit, Ambion, Austin, Texas, USA) and injected into Xenopus laevis oocytes of stage V and VI. After injection, oocytes were incubated for one to two days at 19°C in oocyte Ringer’s solution 2 (OR-2), which contained (in mM): 82.5 NaCl, 2.5 KCl, 1.0 Na2HPO4, 1.0 MgCl2, 1.0 CaCl2, 5.0 HEPES, 0.5 g/l PVP, 1,000 U/l penicillin and 10 mg/l streptomycin, NaOH was used to adjust pH to 7.3. Whole cell currents were recorded from defolliculated oocytes by two-electrode voltage-clamp (TEVC) using the amplifier TurboTec 03X (npi electronic GmbH, Tamm, Germany). […]

The values below come from paper PMC4212090, “The comprehensive analysis of DEG/ENaC subunits in Hydra reveals a large variety of peptide-gated channels, potentially involved in neuromuscular transmission” (BMC Biology, 2014).

Chain of HyNaC2/3/5 (A8DZR6 entry or part of it): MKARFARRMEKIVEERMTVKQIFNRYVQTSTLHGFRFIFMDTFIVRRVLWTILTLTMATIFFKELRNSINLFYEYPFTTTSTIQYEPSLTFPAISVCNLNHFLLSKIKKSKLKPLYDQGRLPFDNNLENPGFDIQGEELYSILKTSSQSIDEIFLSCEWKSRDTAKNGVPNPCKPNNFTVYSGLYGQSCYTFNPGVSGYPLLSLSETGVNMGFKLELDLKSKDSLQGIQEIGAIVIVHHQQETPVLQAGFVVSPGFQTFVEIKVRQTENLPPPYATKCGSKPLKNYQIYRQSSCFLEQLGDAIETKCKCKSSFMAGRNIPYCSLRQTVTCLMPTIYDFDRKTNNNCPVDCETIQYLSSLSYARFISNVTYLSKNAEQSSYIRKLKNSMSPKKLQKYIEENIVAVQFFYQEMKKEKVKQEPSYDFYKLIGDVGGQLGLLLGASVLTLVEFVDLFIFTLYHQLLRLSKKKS
Chain of HyNaC2/3/5 (D3UD58 entry or part of it): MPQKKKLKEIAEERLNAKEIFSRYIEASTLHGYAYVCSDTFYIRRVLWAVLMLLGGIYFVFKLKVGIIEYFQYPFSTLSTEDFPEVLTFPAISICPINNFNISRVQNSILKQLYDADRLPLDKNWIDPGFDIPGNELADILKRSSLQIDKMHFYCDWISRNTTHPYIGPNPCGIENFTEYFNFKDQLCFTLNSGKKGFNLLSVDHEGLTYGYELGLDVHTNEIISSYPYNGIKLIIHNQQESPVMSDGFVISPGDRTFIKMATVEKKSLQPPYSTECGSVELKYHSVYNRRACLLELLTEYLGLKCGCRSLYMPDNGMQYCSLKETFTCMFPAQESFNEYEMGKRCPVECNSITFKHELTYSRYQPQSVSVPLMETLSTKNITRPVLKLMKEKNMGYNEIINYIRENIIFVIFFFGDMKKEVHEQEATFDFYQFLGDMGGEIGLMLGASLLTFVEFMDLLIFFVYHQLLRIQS
Chain of HyNaC2/3/5 (A8DZR7 entry or part of it): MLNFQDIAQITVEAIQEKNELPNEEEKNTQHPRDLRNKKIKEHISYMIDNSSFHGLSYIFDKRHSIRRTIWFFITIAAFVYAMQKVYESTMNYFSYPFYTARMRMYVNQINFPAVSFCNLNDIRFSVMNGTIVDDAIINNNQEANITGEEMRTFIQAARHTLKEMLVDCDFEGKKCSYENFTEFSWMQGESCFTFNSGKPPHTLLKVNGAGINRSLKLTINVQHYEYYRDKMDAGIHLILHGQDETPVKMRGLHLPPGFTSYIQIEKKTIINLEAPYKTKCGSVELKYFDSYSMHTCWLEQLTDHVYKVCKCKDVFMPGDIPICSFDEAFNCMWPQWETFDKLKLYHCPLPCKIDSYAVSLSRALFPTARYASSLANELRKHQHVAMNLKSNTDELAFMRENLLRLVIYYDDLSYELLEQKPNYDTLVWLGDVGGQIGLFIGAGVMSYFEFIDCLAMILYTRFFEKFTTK
Chain of HyNaC2/4/6 (A8DZR8 entry or part of it): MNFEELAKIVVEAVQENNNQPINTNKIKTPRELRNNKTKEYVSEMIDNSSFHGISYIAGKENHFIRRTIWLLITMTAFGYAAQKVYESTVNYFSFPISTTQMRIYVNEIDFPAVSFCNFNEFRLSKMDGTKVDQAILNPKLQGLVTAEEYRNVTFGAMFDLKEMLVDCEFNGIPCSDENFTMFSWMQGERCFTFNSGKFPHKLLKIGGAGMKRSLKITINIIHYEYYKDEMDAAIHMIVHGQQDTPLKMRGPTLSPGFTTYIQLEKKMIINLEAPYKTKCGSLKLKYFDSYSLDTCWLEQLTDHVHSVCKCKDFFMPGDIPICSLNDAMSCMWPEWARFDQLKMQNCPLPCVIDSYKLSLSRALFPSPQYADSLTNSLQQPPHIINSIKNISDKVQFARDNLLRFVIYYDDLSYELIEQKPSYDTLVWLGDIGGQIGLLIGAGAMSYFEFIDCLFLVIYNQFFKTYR
Chain of HyNaC2/4/6 (A0A0A0MP54 entry or part of it): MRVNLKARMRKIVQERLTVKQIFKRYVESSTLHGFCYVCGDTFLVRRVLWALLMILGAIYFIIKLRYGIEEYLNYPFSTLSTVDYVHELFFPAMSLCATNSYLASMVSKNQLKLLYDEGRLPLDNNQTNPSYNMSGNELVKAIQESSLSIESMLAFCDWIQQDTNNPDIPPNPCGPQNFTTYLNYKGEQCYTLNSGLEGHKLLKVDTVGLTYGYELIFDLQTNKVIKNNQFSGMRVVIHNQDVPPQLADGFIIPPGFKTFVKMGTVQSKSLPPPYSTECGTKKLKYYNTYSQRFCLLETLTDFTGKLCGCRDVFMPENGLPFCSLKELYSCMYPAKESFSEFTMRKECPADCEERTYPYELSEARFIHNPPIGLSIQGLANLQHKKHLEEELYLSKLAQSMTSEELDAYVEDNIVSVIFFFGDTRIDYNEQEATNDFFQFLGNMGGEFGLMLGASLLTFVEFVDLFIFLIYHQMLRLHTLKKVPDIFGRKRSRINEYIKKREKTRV
Chain of HyNaC2/4/6 (A8DZR6 entry or part of it): as the sequence (A8DZR6 entry or part of it) above
Chain of HyNaC2/11/5 (A0A0A0MP55 entry or part of it): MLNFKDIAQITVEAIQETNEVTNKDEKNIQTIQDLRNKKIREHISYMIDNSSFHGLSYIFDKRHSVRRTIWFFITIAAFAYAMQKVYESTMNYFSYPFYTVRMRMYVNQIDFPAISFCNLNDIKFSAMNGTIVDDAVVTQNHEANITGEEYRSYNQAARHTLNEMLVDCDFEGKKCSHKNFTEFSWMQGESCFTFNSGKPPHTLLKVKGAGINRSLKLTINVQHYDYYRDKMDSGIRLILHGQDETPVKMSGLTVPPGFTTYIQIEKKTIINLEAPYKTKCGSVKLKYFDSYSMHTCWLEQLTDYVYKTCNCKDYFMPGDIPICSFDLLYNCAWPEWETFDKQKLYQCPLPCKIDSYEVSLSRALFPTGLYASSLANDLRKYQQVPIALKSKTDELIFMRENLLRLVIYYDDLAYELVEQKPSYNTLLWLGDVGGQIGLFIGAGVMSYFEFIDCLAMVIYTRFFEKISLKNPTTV
Chain of HyNaC2/11/5 (A8DZR6 entry or part of it): as the sequence (A8DZR6 entry or part of it) above
Chain of HyNaC2/11/5 (D3UD58 entry or part of it): as the sequence (D3UD58 entry or part of it) above

As to `N=C(N)c1ccc(/N=N/Nc2ccc(C(=N)N)cc2)cc1` [diminazene], the IC50 – broadly, the concentration that gives 50% inhibition – worked out at 50 ± 20 nM against HyNaC2/4/6; 90 ± 20 nM on HyNaC2/3/6; 1700 ± 580 nM against HyNaC2/9/7; 160 ± 80 nM against HyNaC2/3/7; 5400 ± 1450 nM on HyNaC2/10/7; 31400 ± 9400 nM on HyNaC2/11/5. The molecule further displayed an IC50 on HyNaC2/3/5 of 450 ± 90 nM. In addition, the “tentacle curling (feeding reaction)” value with Hydra magnipapillata (100 μM diminazene in medium) is listed as “slightly delayed”. For the same molecule, in the test with Hydra magnipapillata (200 μM diminazene in medium), the “initiation of tentacles movement (feeding reaction)” value was “more strongly and significantly (P ≤0.01) delayed”. For the same molecule, the feeding reaction entry in the test on Hydra magnipapillata (300 μM diminazene in medium) was “strongly inhibited the feeding reaction”. Moreover, in the test with Hydra magnipapillata (300 μM diminazene in medium, after four minutes), the “animals with tentacles completely curled” value amounted to 20%. Further, the “block of HyNaC currents” value in the test with HyNaCs (10 μM diminazene) is reported as “almost completely blocked”. Further, the “potency relative to amiloride” value with HyNaCs (estimated) is > 100 fold.
